Results reported in publication PMC10101011, “A Retro-Aldol Reaction Prompted the Evolvability of a Phosphotransferase System for the Utilization of a Rare Sugar” (Microbiology Spectrum, 2023).

Tests used:
Assay type in all cases: biochemical
FruK (EC_FruK) [1] = molecular target: T1, FruK (EC_FruK) (Escherichia coli, UniProt P0AEW9); assay: coupled NADH oxidation assay (FbaA, TPI, G3PDH); settings: 2 mM ATP, 2 mM substrate, 10 mM MgCl2, pH 8.0, 25 °C
T1 construct: His-tagged, pET-28a(+), expressed in E. coli BL21(DE3)
T1 sequence (P0AEW9 whole entry): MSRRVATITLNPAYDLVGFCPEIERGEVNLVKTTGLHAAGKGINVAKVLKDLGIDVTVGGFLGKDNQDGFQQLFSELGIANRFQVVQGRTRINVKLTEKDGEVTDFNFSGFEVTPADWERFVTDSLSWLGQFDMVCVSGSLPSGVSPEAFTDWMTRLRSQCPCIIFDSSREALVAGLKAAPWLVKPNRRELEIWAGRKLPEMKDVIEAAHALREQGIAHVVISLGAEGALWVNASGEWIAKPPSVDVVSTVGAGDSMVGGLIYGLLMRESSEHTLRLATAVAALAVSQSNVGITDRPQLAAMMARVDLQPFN

EC_KbaY = molecular target: T2, EC_KbaY (Escherichia coli, UniProt P0AB74); assay: coupled NADH oxidation assay (TPI, G3PDH); settings: 1 mM substrate, 10 mM MgCl2, pH 8.0, 25 °C
T2 construct: gene kbaY; catalytic subunit alone without KbaZ, His-tagged, pET-28a(+), 31 kDa
T2 sequence (P0AB74 whole entry): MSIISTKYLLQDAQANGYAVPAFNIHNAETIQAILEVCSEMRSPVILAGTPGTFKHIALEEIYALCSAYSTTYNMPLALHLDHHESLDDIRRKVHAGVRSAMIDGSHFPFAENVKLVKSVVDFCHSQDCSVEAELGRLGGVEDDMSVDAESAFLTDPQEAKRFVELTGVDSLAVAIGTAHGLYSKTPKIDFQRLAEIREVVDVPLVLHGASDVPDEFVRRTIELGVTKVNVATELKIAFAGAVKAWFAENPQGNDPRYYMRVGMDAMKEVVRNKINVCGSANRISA

EC_GatY = molecular target: T3, EC_GatY (Escherichia coli, UniProt P0C8J6); assay: coupled NADH oxidation assay (TPI, G3PDH); settings: 1 mM substrate, 10 mM MgCl2, pH 8.0, 25 °C
T3 construct: gene gatY; catalytic subunit alone without GatZ, His-tagged, pET-28a(+), 30 kDa
T3 sequence (P0C8J6 whole entry): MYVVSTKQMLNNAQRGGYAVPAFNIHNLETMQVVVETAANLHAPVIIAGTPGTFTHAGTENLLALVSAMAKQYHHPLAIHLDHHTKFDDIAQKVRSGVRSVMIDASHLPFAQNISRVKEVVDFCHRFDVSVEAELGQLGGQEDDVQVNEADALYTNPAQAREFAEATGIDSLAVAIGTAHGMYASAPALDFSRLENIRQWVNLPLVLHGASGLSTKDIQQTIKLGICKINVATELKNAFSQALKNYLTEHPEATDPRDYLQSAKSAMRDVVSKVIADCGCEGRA

FruK (EC_FruK) [2] = molecular target: T4, FruK (EC_FruK) (Escherichia coli, UniProt P0AEW9, A39S); assay: coupled NADH oxidation assay (GatY, TPI, G3PDH); settings: 2 mM ATP, 2 mM substrate, 10 mM MgCl2, pH 8.0, 25 °C
T4 construct: His-tagged, pET-28a(+), expressed in E. coli BL21(DE3)
T4 sequence (P0AEW9 whole entry A39S): as the sequence (P0AEW9 whole entry) above, with A39S counted along it

## O=P(O)(O)OCC1(O)O[C@H](CO)[C@@H](O)[C@@H]1O (stereo partly drawn) [D-Fru-1P]
FruK (EC_FruK) [1]
  coupled NADH oxidation assay (FbaA, TPI, G3PDH): for primary D-Fru-1P were much lower than that of FruK_WT

## O=P(O)(O)OC[C@H]1OC(O)(COP(=O)(O)O)[C@@H](O)[C@H]1O (stereo partly drawn) [D-Tag-1,6-BP]
EC_KbaY
  coupled NADH oxidation assay (TPI, G3PDH): EC_GatY and EC_KbaY showed much lower D-Tag-1,6-BP cleavage activity than BL_GatY
EC_GatY
  coupled NADH oxidation assay (TPI, G3PDH): EC_GatY and EC_KbaY showed much lower D-Tag-1,6-BP cleavage activity than BL_GatY

## O=P(O)(O)OC[C@H]1OC(O)(CO)[C@@H](O)[C@H]1O (stereo partly drawn) [D-Tag-6P]
FruK (EC_FruK) [2]
  coupled NADH oxidation assay (GatY, TPI, G3PDH): FruK_A39S showed relatively higher activities for D-Tag-6P than FruK_WT
